Laboratory results: patent publication US8889680B2, “Treatment or prevention of fungal infections with PDK1 inhibitors” (priority 2010, dated 2014)
Converted amounts (≈) assume the structure as drawn. Read-outs that look alike come from different tables or passages of the source.

Experiments:
[1] = system: C. albicans clinical reference strain SC5314; assay: Adenylate kinase (AK) release assay of yeast cell lysis; assay type: cell-based, Candida albicans; set-up: dose or concentration left out as unconfirmed; details: extracellular AK activity relative to DMSO-treated cells
Description: AK assays were performed according to a recently published protocol (Didone et al., Nat. Protocol. 5:1107-14 (2010)) using the 96-well plate version using the Toxi-Light Assay kit (Lonza; Basel, Switzerland). Luminescence was measured using a SpectraMax plate reader (Molecular Devices; Sunnyvale, Calif.). […] To identify PKIs that disrupt yeast cell wall integrity, a four-part screening strategy as outlined in FIG. 1A was designed. The primary screen in the approach detects molecules that cause yeast cells to lyse, a characteristic phenotype of yeast cell wall damage, by use of an assay that detects the release of adenylate kinase (AK) to the growth medium as a reporter of yeast cell lysis. […] Last, to select PKIs specific for the CWI signaling pathway, the set of hits were tested for their ability to block the activation of a transcriptional reporter of the CWI-signaling pathway. To rapidly survey a sample of well-characterized PKIs, the commercially available InhibitorSelect collection, a library of 80 PKIs with diverse mechanistic and structural characteristics, was utilized. C. albicans clinical reference strain SC5314 was screened against the InhibitorSelect library for molecules that caused a release of AK into the growth medium.

C. albicans [2] = assay: Antifungal susceptibility (microdilution MIC), C. albicans; assay type: cell-based, Candida albicans
Description: (§1) The antifungal activity of protein kinase inhibitors was determined using the Clinical and Laboratory Science Institute microdilution protocol M-27A2. Biofilm antifungal activity was determined using the protocol of Pierce et al. and is reported as MIC50S (Pierce et al., Nat. Protoc. 3:1494-1500 (2008)). Disk diffusion assays were performed as described previously (Roelants et al., Microbiology 150:3289-304 (2004)).
To identify PKIs that disrupt yeast cell wall integrity, a four-part screening strategy as outlined in FIG. 1A was designed. The primary screen in the approach detects molecules that cause yeast cells to lyse, a characteristic phenotype of yeast cell wall damage, by use of an assay that detects the release of adenylate kinase (AK) to the growth medium as a reporter of yeast cell lysis. Previously it was shown that the AK assay in HTS format can detect as few as 500 lysed yeast cells in a sample of 10^5 cells (Didone et al., Nat. Protocol. 5:1107-14 (2010)). PKIs that cause yeast cells lysis (hits) were then re-confirmed by AK dose-response assays and tested for in vitro antifungal activity against the human fungal pathogen C. albicans using standard microdilution susceptibility testing. Last, to select PKIs specific for the CWI signaling pathway, the set of hits were tested for their ability to block the activation of a transcriptional reporter of the CWI-signaling pathway. […]

C. neoformans = assay: Antifungal susceptibility (microdilution MIC), C. neoformans; assay type: cell-based, Cryptococcus neoformans
Description: as §1
(FIG. 3A). […] Since the echinocandin class of cell wall-targeted 1,3-β-glucan synthase inhibitors is not active against C. neoformans, this represents one of the few cell wall-targeted molecules with activity against this important pathogen.

C. albicans biofilms = assay: Biofilm XTT reduction assay of metabolic activity; assay type: cell-based, Candida albicans; details: at higher concentrations than those active against planktonic cells
Description: Filled circles indicate growth and clear circles indicate no detectable turbidity. The lowest concentration of drug resulting in no growth is defined as the MIC. […] Metabolic activity was determined using the XTT assay.
SC5314 biofilms were generated in microtiter plates for 48 hours and treated with OSU-03012 for 24 hours before being subject to an XTT reduction assay of metabolic activity.
as §1

[3] = system: C. albicans strain SC5314; assay: Mouse model of candidiasis, kidney fungal burden; assay type: in vivo; details: BALB/c mice, 100 mg/kg per day by oral gavage in peanut oil, 2 days, C. albicans SC5314 i.v.
Description: (§2) YPD cultures were incubated at 37° C. for 30 hours in the presence of the indicated drugs and combinations. Aliquots were diluted and plated on YPD at 30° C. to determine inoculum. […] BALB/c mice (n=5 per group) were treated with 100 mg/kg OSU-03012 per day by oral gavage after inoculation with C. albicans SC5314 by tail vein injection for 2 days and kidney fungal burden was determined.
On the day of inoculation (DO), BALB/c mice were restrained in a mechanical restrainer and inoculated with C. albicans strain SC5314 suspended in saline (1×10^5 cfu/animal) via lateral tail vein injection. OSU-03012 (100 mg/kg) in peanut oil was given by gavage to half the animals (n=5) and peanut oil alone was given to the other half of animals on the day of inoculation and on the following day. ON D2, the animals were sacrificed and the kidneys harvested. The kidneys were homogenized and dilutions were plated on yeast peptone dextrose plates containing gentamicin and vancomycin. The plates were incubated at 30° C. for one day and colony forming units per kidney were determined by standard methods. Differences between treatment and no treatment groups were analyzed by Student's t test with a statistically significant effect defined as P<0.05.

C. neoformans H99 = assay: Time-kill evaluation in combination with fluconazole; assay type: cell-based, Cryptococcus neoformans; details: C. neoformans H99, YPD, 37° C., 30 hours
Description: as §2
To determine if the combination of OSU-03012 and fluconazole was fungicidal, overnight cultures of C. neoformas strain H99 were diluted to 1.5×10^4 cells/ml in yeast peptone dextrose containing either: dimethyl sulfoxide (DMSO) (1% final concentration); fluconazole (2 μg/ml/1% DMSO); OSU-03012 (2 μg/ml/1% DMSO); or OSU-03012 and fluconazole (2 μg/ml each/1% DMSO). The cultures were incubated at 37° C. for 30 hours. Aliquots were removed at 0, 3, 6, 24, and 30 hours; diluted and plated on yeast peptone dextrose plates. The plates were incubated at 30° C. for 48 hours and colony forming units per ml determined by standard methods. It was determined that the combination of OSU-03012 and fluconazole was fungicidal (FIG. 9A).

human cells = details: cited from earlier work
[4] = system: CWI pathway reporter Rlm1-lacZ; assay: β-Galactosidase CWI pathway reporter assay (Rlm1-lacZ); assay type: cell-based; details: sub-inhibitory concentrations (1/2 MIC), S. cerevisiae
Description: Bars indicate mean fold change in Miller units of β-galactosidase activity relative to logarithmic phase cells without calcofluor or PKI. Error bars indicate standard deviation of three independent trials performed in triplicate. […] The percentage of cells with PI uptake was determined by fluorescence.
Logarithmic phase S. cerevisiae (BY4741) cells harboring the pRLM1-lacZ plasmid were transferred to a 96-well plate, and treated with Calcofluor white ([…])+/−protein kinase inhibitor at sub-inhibitory concentrations (1/2MIC). The cells were incubated at room temperature for 5 hours and processed for β-galactosidase activity using the ThermoScientific Yeast β-galactosidase kit according to the manufacturer's instructions (Pierce; Rockford, Ill.). β-galactosidase activity was determined by measuring OD420 using a SpectraMax Plate reader (Molecular Devices) and expressed as fold change in Miller units (nmole/mg/min) relative to untreated cells. Each experiment was performed in duplicate with three independent isolates.
The novel, antifungal PKIs identified in the primary screen were evaluated for their ability to block CWI pathway signaling using a reporter construct that contains two copies of the consensus binding site for the CWI-pathway-regulated transcription factor Rlm1 fused to the β-galactosidase gene (Jung et al., Mol. Microbiol. 46:781-9 (2002)). […]

C. albicans [5] = assay: Checkerboard interaction assay (FIC); assay type: cell-based, Candida albicans
Description: This assay allows one to compare the activity of a molecule alone and in combination with another molecule by generating a fractional inhibitory concentration (FIC). FIC for two drugs (A & B) is calculated as follows: […]. FIC values less than 0.5 are considered synergistic; between 0.5 and 1 are additive; between 1-2 are indifferent; and above 2 are antagonistic. […] Therefore, KP-372-1 is not synergistic with either agent.

[6] = C. albicans growth assay, Table 1
[7] = Candida albicans, C. albicans growth assay, Table 1, read-out: MIC

CC[n+]1c(/C=C/N(C)c2ccccc2)n(-c2ccccc2)c2ccc(-c3nc4ccccc4s3)cc21.[I-] [Akt IV]
Fold increase in AK release [1]: 12 Fold
MIC (C. albicans [2]; [6]): 9 µg/mL

Herbymicin
Fold increase in AK release [1]: 127 Fold
MIC (C. albicans [2]; [6]): 40 µg/mL

NCC(=O)Nc1ccc(-n2nc(C(F)(F)F)cc2-c2ccc3c(ccc4ccccc43)c2)cc1 [OSU-03012]
antifungal activity (in words) (C. albicans [2]; C. albicans): good antifungal activity
MIC (C. albicans [2]; Candida albicans, C. albicans, FIG. 7 legend, read-out: MIC): 3 µg/mL (≈ 6.52 µM)
antifungal activity (in words) (C. neoformans): good antifungal activity
MIC (C. neoformans; Cryptococcus neoformans, FIG. 7 legend): 4 µg/mL (≈ 8.69 µM)
activity against C. albicans biofilms (in words) (C. albicans biofilms): showed activity
in vivo activity (kidney fungal burden) [3]: in vivo activity against C. albicans infection
interaction with fluconazole (C. neoformans H99): synergistic
time-kill result of the combination (C. neoformans H99; OSU-03012 and fluconazole 2 μg/ml each): fungicidal
concentration tolerated in human cells (human cells): 8000 ng/mL

CN[C@@H]1C[C@H]2O[C@@](C)([C@@H]1OC)n1c3ccccc3c3c4c(c5c6ccccc6n2c5c31)C(=O)NC4 [Staurosporine]
Fold increase in AK release [1]: 48 Fold
MIC (C. albicans [2]; [7]): 0.5 µg/mL (≈ 1.07 µM)

CO[C@H]1C[C@@H]2CC[C@@H](C)[C@@](O)(O2)C(=O)C(=O)N2CCCC[C@H]2C(=O)O[C@H]([C@H](C)C[C@@H]2CC[C@@H](O)[C@H](OC)C2)CC(=O)[C@H](C)/C=C(\C)[C@@H](O)[C@@H](OC)C(=O)[C@H](C)C[C@H](C)/C=C/C=C/C=C/1C [Rapamycin]
Fold increase in AK release [1]: 17 Fold
MIC (C. albicans [2]; [7]): 100 µg/mL (≈ 109 µM)

NCCNc1ncc(C(N)=O)c(Nc2cccc(C(F)(F)F)c2)n1 [Sykll]
Fold increase in AK release [1]: 14 Fold
MIC (C. albicans [2]; [6]): 9 µg/mL (≈ 26.4 µM)
Rlm1-lacZ reporter activity induced by Calcofluor white [4]: completely abolished reporter activity

COc1ccc2c(c[n+](C)c3c4cc5c(cc4ccc23)OCO5)c1OC [Chelerythine]
Fold increase in AK release [1]: 5 Fold
MIC (C. albicans [2]; [6]): 125 µg/mL

O=C(Nc1cccc(Nc2ncc(Br)c(NCCc3cnc[nH]3)n2)c1)N1CCCC1 [BX-912]
MIC (growth inhibition) (C. albicans [2]; C. albicans, planktonic): ≥ 64 µg/mL
MIC (growth inhibition) (C. neoformans): ≥ 64 µg/mL

CN[C@@H]1C[C@H]2O[C@@](C)([C@@H]1OC)n1c3ccccc3c3c4c(c5c6ccccc6n2c5c31)C(=O)N[C@@H]4O [UCN-01]
antifungal activity (in words) (C. albicans [2]; C. albicans): good antifungal activity
antifungal activity (in words) (C. neoformans): good antifungal activity
activity against C. albicans biofilms (in words) (C. albicans biofilms): showed activity
FIC (fractional inhibitory concentration) (C. albicans [5]; combination with caspofungin): 1.0
FIC (fractional inhibitory concentration) (C. albicans [5]; combination with fluconazole): 0.3
